Residue numbers refer to the chain shown, from its start. Names may count otherwise.
Assays:
FAM antibody = assay: Fluorescence-binding assay, Kd by nonlinear regression fit to the Hill equation
Description: (§1) Fluorescence Binding Assay

[1] = molecular target: T1, L. innocua LIN2189 variant E157A (SEQ ID NO:28) (Listeria innocua, UniProt Q929T5, E157A); assay type: binding; settings: FAM
T1 construct: listing organism Escherichia coli is only the host

[2] = molecular target: T2, CTR107 WT (C. tepidium Gyrl-like protein, wild type, SEQ ID NO:4) (Chlorobaculum tepidum, UniProt Q8KFZ1); assay: biochemical; assay type: binding
T2 construct: begins […]
T2 sequence (Q8KFZ1 entry or part of it): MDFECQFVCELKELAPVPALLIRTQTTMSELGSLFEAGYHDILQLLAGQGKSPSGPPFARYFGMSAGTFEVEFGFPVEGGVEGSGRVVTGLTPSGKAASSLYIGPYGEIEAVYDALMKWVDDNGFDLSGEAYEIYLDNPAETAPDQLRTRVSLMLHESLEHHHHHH

[3] = molecular target: C. tepidium CTR107 variant, highest affinity FAM-binding aptamer from phage display library (Chlorobaculum tepidum, UniProt Q8KFZ1); assay: Fluorescence-binding assay, Kd by nonlinear regression fit to the Hill equation
[4] = molecular target: C. tepidium CTR107 variant, weakest FAM-binding aptamer from phage display library (Chlorobaculum tepidum, UniProt Q8KFZ1); assay: as above
[5] = molecular target: T3, C. tepidium CTR107 variant Y106W (SEQ ID NO:20) (Chlorobaculum tepidum, UniProt Q8KFZ1, Y106W); assay: biochemical; assay type: binding
T3 sequence (Q8KFZ1 with tags, fused parts or gaps Y106W): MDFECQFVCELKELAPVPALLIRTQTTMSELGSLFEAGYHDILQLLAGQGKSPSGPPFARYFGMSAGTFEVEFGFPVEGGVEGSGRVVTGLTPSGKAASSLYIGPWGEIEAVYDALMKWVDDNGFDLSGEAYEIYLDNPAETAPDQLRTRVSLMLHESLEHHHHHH

[6] = molecular target: T4, LIN2189 WT (L. innocua Gyrl-like protein, wild type, SEQ ID NO:6) (Listeria innocua, UniProt Q929T5); assay: Fluorescence binding assay (enhancement/quenching of dye fluorescence); settings: 1 μM FAM, saturating protein
T4 construct: recombinant, purified
T4 sequence (Q929T5 with tags, fused parts or gaps): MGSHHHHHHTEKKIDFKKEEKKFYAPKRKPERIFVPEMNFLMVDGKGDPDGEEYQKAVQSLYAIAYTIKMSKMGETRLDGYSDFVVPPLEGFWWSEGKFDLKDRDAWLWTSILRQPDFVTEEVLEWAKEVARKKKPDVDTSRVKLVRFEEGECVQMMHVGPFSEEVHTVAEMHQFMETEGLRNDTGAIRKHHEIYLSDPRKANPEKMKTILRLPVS
Description: as §1
CTR107 when added at 10 μM induced a 10-fold increase in DFHBI fluorescence (FIG. 6A).
Malachite Green fluoresces in the far-red regions when stimulated by binding aptamers, therefore we monitored its fluorescence emission at 665-720 nm after exciting at 635 nm.
Thioflavin T is a benzothiazole dye that has also been used in many fluorescence applications. […] The Corn aptamer is able to bind to two Thioflavin T molecules at a homodimer interface formed by G-quadruplexes. We tested whether Gyrl-like proteins could function as fluorescence enhancement aptamers of Thioflavin T. Thioflavin T has excitation and emission maxima of […], respectively. We probed the fluorescence enhancing properties of SAV2435, CTR107 and LIN2189 variants on Thioflavin T (FIG. 8). […] All other variants display either a small 4-6 fold increase or no increase in Thioflavin T fluorescence.

[7] = molecular target: T5, SAV2435 WT (S. aureus Gyrl-like protein, wild type, SEQ ID NO:2) (Staphylococcus aureus, UniProt A0A0H3K0Y5); assay type: binding
T5 construct: listing organism Escherichia coli is only the host

[8] = molecular target: C. tepidium CTR107 variant E36R (SEQ ID NO:18) (Chlorobaculum tepidum, UniProt Q8KFZ1, E36R); assay type: binding; settings: FAM
C. tepidium CTR107 variant E36R (SEQ ID NO:18), sequence (Q8KFZ1 entry or part of it E36R): as the sequence (Q8KFZ1 entry or part of it) above, with E36R counted along it

[9] = molecular target: T6, C. tepidium CTR107 variant E133Q (SEQ ID NO:22) (Chlorobaculum tepidum, UniProt Q8KFZ1, E133Q); assay type: binding
T6 sequence (Q8KFZ1 with tags, fused parts or gaps E133Q): T3 sequence (Q8KFZ1 with tags, fused parts or gaps Y106W) with W106Y, E133Q

[10] = molecular target: S. aureus SAV2435 variant P106W (SEQ ID NO:12) (Staphylococcus aureus, UniProt A0A0H3K0Y5, P106W); assay type: binding; settings: 500 nM Acridine Orange
[11] = molecular target: S. aureus SAV2435 variant Y137W (SEQ ID NO:16) (Staphylococcus aureus, UniProt A0A0H3K0Y5, V105W/Y137W); assay type: binding; settings: Acridine Orange
[12] = molecular target: S. aureus SAV2435 variant N27W (SEQ ID NO:8) (Staphylococcus aureus, UniProt A0A0H3K0Y5); assay type: binding; settings: Acridine Orange
[13] = molecular target: S. aureus SAV2435 variant V105W (SEQ ID NO:10) (Staphylococcus aureus, UniProt A0A0H3K0Y5, V105W); assay type: binding; settings: 500 nM Acridine Orange
[14] = molecular target: S. aureus SAV2435 variant E135Q (SEQ ID NO:14) (Staphylococcus aureus, UniProt A0A0H3K0Y5, E135Q/V105W); assay type: binding; settings: 500 nM Acridine Orange
[15] = test system: bacterial growth; ampicillin pre-incubated with LIN2189 (LIN2189 DUB); assay: Ex vivo drug-metabolizing aptamer screening (bacterial growth in ampicillin pre-incubated with protein)
[16] = test system: E. coli expressing CTR107 WT; assay: In vivo drug-binding aptamer screening (ampicillin resistance); settings: E. coli growth, OD600, 24 hrs
[17] = test system: E. coli expressing LIN2189 DUB; assay: as above; settings: E. coli growth, OD600, 24 hrs
[18] = test system: E. coli expressing SAV2435 WT; assay: as above; settings: E. coli growth, OD600, 24 hrs
[19] = UV fluorescence quenching of Daunorubicin; settings: 5 μM daunorubicin; saturating protein

T1 sequence (Q929T5 entry or part of it E157A): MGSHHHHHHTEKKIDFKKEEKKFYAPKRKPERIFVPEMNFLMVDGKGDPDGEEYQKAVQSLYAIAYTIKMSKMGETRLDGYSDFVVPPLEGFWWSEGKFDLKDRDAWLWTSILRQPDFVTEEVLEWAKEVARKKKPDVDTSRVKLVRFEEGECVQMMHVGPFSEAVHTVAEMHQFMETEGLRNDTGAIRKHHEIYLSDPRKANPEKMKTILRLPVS

5(6)-Carboxyfluorescein [FAM]
Kd (FAM antibody): 8 nM
changes in fluorescence quenching compared to LIN2189 WT [1]: no changes
decrease in fluorescence ([2]; 1 μM FAM, saturating protein): 6 fold
affinity relative to FAM antibody [3]: 11 fold
Kd [4]: 3 nM
fluorescence quenching ([5]; FAM): loss of quenching properties
decrease in fluorescence [6]: 2 fold
effect on fluorescence ([7]; 1 μM FAM, saturating protein): no effect
fluorescence quenching [8]: loss of quenching properties
fluorescence quenching ([9]; FAM): loss of quenching properties

CN(C)c1ccc2cc3ccc(N(C)C)cc3nc2c1 [Acridine Orange]
increase in fluorescence intensity [10]: doubled
increase in fluorescence intensity ([2]; 500 nM Acridine Orange): doubled
quenching effect on fluorescence [11]: 2-3 fold
quenching effect on fluorescence [12]: 2-3 fold
quenching effect on fluorescence ([5]; Acridine Orange): 2-3 fold
quenching effect on fluorescence ([7]; Acridine Orange): 2-3 fold
increase in fluorescence intensity [13]: doubled
increase in fluorescence intensity ([9]; 500 nM Acridine Orange): doubled
increase in fluorescence intensity [14]: doubled

CC1(C)S[C@@H]2[C@H](NC(=O)[C@H](N)c3ccccc3)C(=O)N2[C@H]1C(=O)O [Ampicillin]
resistance up to ampicillin concentration [15]: up to 500 μg/ml
partial resistance up to ampicillin concentration [16]: up to 100 μg/ml
highest resistance at ampicillin concentration [17]: 100 µg/mL
susceptibility to ampicillin [18]: susceptible

B1: CTR107 Y106W: CTR107 variant aptamer, SEQ ID NO:20 (protein, listed as Escherichia coli)
chain: T3 sequence (Q8KFZ1 with tags, fused parts or gaps Y106W)
UV fluorescence of Daunorubicin with protein [19]: complete shut off of fluorescence
